# Measurements as given in patent publication US20230348487A1, “2-AMINOPYRIMIDINE COMPOUND AND PHARMACEUTICAL COMPOSITION THEREOF AND APPLICATION THEREOF” (GUANGZHOU SALUSTIER BIOSCIENCES CO., LTD., priority 2021, published 2023).
# Where “and” joins values, the source holds several entries; their conditions need not be identical. Identical values can stand only once. Like-named read-outs stand apart in the source and are kept apart here.
# Experiments:
# [1] = tested on: human chronic myeloid leukemia cell line K562; test: CCK-8 in vitro proliferation inhibition; assay type: cell-based; details: read-out: Inhibitory activity (IC50) on cell proliferation, K562
# Method: (§1) Cell lines: human chronic myeloid leukemia cell line K562, human acute myeloid leukemia cell line U937, human T lymphocyte leukemia cell line HuT78, and human T lymphoblastic lymphoma cell line Jurkat. Cells were purchased from the Chinese Academy of Sciences Stem Cell Bank or ATCC.
# (§2) […] were cultured overnight and suspended cells were directly stimulated with drugs. […] Two repeats were set for each concentration, with a final volume of 200 μL. […] The absorbance values at 450 nm and 650 nm were measured using a microplate reader, and the increment Z (A450-A650) was derived. The inhibitory rate of drugs on cell growth was calculated by GraphPad Prism 8.0.0 through the following formula:
# (§3) Inhibition rate (%)(ODcontrol−ODdosing)/ODcontrol×100%
# (§4) The half inhibitory concentration (IC50) was calculated. Every experiment was repeated at least three times.
# [2] = tested on: human T lymphoblastic lymphoma cell line Jurkat; test: CCK-8 in vitro proliferation inhibition; assay type: cell-based; details: 72 hours, read-out: Inhibitory activity (IC50) on cell proliferation, JURKAT
# Method: as §1, §2, §3, §4
# [3] = tested on: human acute myeloid leukemia cell line U937; test: CCK-8 in vitro proliferation inhibition; assay type: cell-based; details: read-out: Inhibitory activity (IC50) on cell proliferation, U937
# Method: as §1, §2, §3, §4
# [4] = tested on: human T lymphocyte leukemia cell line HuT78; test: CCK-8 in vitro proliferation inhibition; assay type: cell-based; details: read-out: Inhibitory activity (IC50) on cell proliferation, HUT78
# Method: as §1, §2, §3, §4
# JAK1 = JAK1 (Homo sapiens (Human), UniProt P23458); test: Z′-Lyte kinase inhibitory activity test; assay type: biochemical; details: ATP concentration Km
# Method: (§5) Test method: Firstly, test compounds were prepared into 10 mM stock solution with DMSO, and continuously diluted into 10 concentrations at a 3-fold gradient for later use. 5X reaction buffer was diluted with deionized water into 1×reaction buffer (50 mM HEPES pH 7.5, 0.01% Brij-35, 10 mM MgCl2, 1 mM EGTA), which was used to prepare a mixture of kinase and peptide substrate, as well as a phosphorylated peptide substrate solution. The kinase concentration was determined based on enzyme titration, and the final concentration of peptide substrate and phosphorylated peptide substrate was 2 μM. 5 μL of mixture substrate of kinase and peptide substrate was added to each well on the 384 well plate. Then 5 nL of the test compound (starting with a final concentration of 10 μM) was added with an Echo520 Sampler. […] An additional 100% phosphorylation well (5 μL phosphorylated peptide substrate solution), a 0% phosphorylated well (5 μL of a mixture of kinase and peptide substrate, without test compounds and ATP), and a 0% inhibitory well (5 μL of a mixture of kinase and peptide substrate and appropriate concentration of ATP) were set as control. Two repeats were set for each concentration. The above reaction system was incubated at 30° C. for 1.5 hours. […] 2.5 μL of the diluted mixture was added to each well and the system was incubated at 30° C. for another 1 hour. […] The substrate phosphorylation rate was obtained by calculating the ratio, and the activity of the kinase and the effect of the inhibitor on the kinase was further calculated. Every experiment was repeated at least three times.
# JAK2 = JAK2 (Homo sapiens (Human), UniProt O60674); test: Z′-Lyte kinase inhibitory activity test; assay type: biochemical
# Method: as §5
# JAK3 = JAK3 (Homo sapiens (Human), UniProt P52333); test: Z′-Lyte kinase inhibitory activity test; assay type: biochemical; details: for JAK3 kinase inhibitory activity and selectivity (in words): summary of Table 3, activity maintained at ATP 1 mM
# Method: as §5
# TYK2 = TYK2 (Homo sapiens (Human), UniProt P29597); test: Z′-Lyte kinase inhibitory activity test; assay type: biochemical; details: ATP concentration Km
# Method: as §5
# JAK1, sequence (P23458 whole entry): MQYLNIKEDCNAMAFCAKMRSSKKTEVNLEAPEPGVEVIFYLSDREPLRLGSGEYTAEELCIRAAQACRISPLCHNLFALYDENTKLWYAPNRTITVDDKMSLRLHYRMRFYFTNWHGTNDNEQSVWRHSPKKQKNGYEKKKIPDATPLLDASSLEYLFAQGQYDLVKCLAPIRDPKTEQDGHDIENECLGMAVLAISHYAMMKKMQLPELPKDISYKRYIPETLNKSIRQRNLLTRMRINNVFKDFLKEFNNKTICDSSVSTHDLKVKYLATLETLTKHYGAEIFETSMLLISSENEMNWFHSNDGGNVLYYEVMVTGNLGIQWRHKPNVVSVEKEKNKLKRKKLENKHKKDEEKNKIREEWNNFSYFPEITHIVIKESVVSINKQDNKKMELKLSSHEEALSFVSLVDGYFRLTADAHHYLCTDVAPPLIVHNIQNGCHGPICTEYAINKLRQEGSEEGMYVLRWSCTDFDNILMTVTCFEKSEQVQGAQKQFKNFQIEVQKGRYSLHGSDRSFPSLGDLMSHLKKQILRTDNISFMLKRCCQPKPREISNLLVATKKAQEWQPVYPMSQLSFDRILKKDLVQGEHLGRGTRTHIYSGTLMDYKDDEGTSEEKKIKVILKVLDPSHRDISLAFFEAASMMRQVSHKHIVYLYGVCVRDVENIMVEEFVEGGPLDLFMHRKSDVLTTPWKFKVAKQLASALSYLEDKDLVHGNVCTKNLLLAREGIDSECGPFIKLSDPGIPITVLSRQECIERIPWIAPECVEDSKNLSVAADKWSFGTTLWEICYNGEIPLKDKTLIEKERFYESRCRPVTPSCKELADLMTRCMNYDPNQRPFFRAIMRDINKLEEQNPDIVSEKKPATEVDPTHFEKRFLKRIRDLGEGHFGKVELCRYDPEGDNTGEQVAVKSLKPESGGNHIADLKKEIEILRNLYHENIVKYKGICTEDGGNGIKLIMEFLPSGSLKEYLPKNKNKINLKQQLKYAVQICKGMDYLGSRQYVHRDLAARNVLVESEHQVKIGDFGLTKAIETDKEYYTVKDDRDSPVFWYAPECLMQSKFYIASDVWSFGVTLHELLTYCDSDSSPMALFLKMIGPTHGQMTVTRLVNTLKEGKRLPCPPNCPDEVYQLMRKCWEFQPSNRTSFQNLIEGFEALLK
# TYK2, sequence (P29597 whole entry): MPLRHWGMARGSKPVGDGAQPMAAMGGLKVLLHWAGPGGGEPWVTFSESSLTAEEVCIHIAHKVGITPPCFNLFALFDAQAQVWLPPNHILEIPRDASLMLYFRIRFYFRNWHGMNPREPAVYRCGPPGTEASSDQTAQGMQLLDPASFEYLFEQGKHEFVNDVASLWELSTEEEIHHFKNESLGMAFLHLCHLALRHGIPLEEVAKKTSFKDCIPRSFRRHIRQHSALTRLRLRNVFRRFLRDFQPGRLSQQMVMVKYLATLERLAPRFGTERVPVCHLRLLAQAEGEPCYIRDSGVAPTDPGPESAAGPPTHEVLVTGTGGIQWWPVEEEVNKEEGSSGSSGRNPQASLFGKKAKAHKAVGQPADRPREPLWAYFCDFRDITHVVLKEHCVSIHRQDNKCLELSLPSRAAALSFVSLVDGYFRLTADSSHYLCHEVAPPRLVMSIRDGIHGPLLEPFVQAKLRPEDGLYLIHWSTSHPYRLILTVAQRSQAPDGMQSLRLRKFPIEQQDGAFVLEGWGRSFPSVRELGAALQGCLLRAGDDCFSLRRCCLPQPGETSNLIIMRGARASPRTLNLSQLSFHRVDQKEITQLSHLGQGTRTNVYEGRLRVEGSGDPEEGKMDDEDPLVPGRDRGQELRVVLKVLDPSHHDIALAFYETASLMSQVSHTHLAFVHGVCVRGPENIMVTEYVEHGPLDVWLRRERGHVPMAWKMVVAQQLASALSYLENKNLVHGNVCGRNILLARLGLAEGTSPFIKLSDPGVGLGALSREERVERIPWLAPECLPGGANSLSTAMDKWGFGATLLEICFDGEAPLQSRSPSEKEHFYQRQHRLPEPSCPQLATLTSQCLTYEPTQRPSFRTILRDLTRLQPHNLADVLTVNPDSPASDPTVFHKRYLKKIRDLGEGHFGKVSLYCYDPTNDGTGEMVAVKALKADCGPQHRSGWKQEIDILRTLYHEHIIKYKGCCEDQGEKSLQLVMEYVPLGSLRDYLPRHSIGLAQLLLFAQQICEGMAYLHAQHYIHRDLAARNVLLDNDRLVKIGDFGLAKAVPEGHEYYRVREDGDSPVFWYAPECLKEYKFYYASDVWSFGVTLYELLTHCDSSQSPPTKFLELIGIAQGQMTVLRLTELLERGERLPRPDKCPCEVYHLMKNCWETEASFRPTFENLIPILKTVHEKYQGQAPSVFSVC
# JAK3, sequence (P52333 whole entry): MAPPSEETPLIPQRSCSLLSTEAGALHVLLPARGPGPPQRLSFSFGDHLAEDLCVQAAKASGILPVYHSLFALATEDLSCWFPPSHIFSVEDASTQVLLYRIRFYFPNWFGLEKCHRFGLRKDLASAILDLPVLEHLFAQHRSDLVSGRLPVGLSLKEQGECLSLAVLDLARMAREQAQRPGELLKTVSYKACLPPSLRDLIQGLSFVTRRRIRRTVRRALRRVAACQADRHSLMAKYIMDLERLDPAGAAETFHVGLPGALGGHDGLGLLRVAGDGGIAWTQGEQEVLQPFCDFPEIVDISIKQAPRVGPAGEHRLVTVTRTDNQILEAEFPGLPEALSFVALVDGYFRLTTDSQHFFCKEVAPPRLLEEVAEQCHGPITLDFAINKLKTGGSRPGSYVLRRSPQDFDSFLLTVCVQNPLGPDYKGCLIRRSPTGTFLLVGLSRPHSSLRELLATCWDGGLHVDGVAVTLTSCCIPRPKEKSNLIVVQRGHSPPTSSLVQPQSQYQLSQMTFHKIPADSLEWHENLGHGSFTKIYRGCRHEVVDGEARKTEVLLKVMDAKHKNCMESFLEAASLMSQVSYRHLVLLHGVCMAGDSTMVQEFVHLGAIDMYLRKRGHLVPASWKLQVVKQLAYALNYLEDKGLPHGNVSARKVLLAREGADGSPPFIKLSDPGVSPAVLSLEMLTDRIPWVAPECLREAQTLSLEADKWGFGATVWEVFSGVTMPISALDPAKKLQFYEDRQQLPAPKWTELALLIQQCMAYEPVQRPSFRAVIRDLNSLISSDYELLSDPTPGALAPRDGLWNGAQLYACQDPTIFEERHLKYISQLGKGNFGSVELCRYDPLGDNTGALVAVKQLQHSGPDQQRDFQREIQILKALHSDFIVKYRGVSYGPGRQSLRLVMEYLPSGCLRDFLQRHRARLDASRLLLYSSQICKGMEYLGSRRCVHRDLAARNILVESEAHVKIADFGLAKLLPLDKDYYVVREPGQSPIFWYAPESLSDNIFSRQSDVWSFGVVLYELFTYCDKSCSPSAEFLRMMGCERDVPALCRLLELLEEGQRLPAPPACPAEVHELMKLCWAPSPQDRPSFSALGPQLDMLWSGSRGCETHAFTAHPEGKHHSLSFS
# JAK2, sequence (O60674 whole entry): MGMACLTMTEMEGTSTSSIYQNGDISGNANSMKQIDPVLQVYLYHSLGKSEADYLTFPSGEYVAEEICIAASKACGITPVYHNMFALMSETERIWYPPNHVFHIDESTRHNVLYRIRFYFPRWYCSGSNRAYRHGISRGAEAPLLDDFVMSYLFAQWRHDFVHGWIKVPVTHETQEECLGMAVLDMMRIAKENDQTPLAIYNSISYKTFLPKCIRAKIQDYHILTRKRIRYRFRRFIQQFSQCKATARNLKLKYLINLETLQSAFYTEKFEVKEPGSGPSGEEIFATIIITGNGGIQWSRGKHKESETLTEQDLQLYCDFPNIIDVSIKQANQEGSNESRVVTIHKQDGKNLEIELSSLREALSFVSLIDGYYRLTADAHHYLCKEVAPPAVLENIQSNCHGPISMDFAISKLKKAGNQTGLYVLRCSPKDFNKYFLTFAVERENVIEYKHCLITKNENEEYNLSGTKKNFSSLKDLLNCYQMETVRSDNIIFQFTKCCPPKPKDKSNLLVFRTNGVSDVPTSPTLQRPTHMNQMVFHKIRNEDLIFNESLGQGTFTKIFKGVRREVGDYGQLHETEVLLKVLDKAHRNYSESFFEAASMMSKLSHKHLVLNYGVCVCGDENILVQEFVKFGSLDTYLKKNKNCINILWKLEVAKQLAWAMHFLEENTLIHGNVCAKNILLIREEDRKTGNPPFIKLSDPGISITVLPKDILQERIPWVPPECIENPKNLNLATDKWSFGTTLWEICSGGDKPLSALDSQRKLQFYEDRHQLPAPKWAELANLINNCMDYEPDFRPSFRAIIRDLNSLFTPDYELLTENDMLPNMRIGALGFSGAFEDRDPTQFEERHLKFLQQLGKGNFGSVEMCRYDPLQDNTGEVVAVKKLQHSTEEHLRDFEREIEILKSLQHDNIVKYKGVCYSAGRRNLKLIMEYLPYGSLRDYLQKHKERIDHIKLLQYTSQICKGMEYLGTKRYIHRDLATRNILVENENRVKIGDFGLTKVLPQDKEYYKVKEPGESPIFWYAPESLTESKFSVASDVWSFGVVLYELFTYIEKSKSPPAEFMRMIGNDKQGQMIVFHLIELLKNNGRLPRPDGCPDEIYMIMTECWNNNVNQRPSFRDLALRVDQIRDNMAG
"IC50 ([1]; Homo sapiens, K562, 72 hours) [nM]","IC50 ([2]; Homo sapiens, Jurkat) [nM]","IC50 ([3]; Homo sapiens, U-937, 72 hours) [nM]","IC50 ([4]; Homo sapiens, HuT78, 72 hours) [nM]",IC50 (JAK1) [nM],IC50 (JAK2; ATP concentration Km) [nM],"IC50 (JAK3; ATP concentration 1 mM, in μM) [µM]",IC50 (JAK3; ATP concentration Km) [µM],IC50 (TYK2) [nM],IC50 (JAK3; ATP concentration 1 mM) [µM],Structure (SMILES),IC50 ([1]; 72 hours) [nM],IC50 [2] [nM],IC50 ([3]; 72 hours) [nM],IC50 ([4]; 72 hours) [nM],IC50 (JAK2) [nM],JAK3 kinase inhibitory activity and selectivity (in words) (JAK3),IC50 (JAK3)
354,6340,739,3380,618,541,> 10,0.0474,421,–,COc1cc(Nc2ncc(Cl)c(O[C@@H]3CO[C@H]4[C@@H]3OC[C@H]4O)n2)ccc1N1CCC(N2CCN(C)CC2)CC1 [LS 4-143],–,–,–,–,–,–,–
822,9030,516,2390,470,981,–,0.066,301,4.29,CN1CCN(C2CCN(c3ccc(Nc4ncc(Cl)c(O[C@@H]5CO[C@H]6[C@@H]5OC[C@H]6O)n4)cc3)CC2)CC1 [LS 4-145],–,–,–,–,–,–,–
1860,2640,87.5,1090,1120,1160,–,0.0059,335,0.0144,C=CC(=O)Nc1cc(Nc2ncc(Cl)c(O[C@@H]3CO[C@H]4[C@@H]3OC[C@H]4O)n2)ccc1N1CCOCC1 [LS 5-66],–,–,–,–,–,strong and selective JAK3 kinase inhibitory activity,–
2760,2780,524,928,2670,1540,–,0.0905,430,4.38,C/C=C/C(=O)Nc1cc(Nc2ncc(Cl)c(O[C@@H]3CO[C@H]4[C@@H]3OC[C@H]4O)n2)ccc1N1CCC(N2CCN(C)CC2)CC1 [LS 5-72],–,–,–,–,–,–,–
117,2240,246,476,1730,1630,–,0.0724,312,4.94,C=C(C)C(=O)Nc1cc(Nc2ncc(Cl)c(O[C@@H]3CO[C@H]4[C@@H]3OC[C@H]4O)n2)ccc1N1CCC(N2CCN(C)CC2)CC1 [LS 5-73],–,–,–,–,–,–,–
91.8,3950,181,448,1120,1520,–,0.00426,226,0.00737,C=CC(=O)Nc1cc(Nc2ncc(Cl)c(O[C@@H]3CO[C@H]4[C@@H]3OC[C@H]4O)n2)ccc1N(C)CCO [LS 5-74],–,–,–,–,–,strong and selective JAK3 kinase inhibitory activity,–
5980,3050,227,1060,4880,2360,–,0.057,278,4.19,CN(C)C/C=C/C(=O)Nc1cc(Nc2ncc(Cl)c(O[C@@H]3CO[C@H]4[C@@H]3OC[C@H]4O)n2)ccc1N1CCC(N2CCN(C)CC2)CC1 [LS 5-81],–,–,–,–,–,–,–
70.9,34.1,5.78,19.2,895,1060,–,0.0055,233,0.0206,C=CC(=O)Nc1cc(Nc2ncc(Cl)c(O[C@@H]3CO[C@H]4[C@@H]3OC[C@H]4O)n2)ccc1N1CCC2(CCN(C)CC2)CC1 [LS 5-91],–,–,–,–,–,strong and selective JAK3 kinase inhibitory activity,–
866,290,21.1,92.4,1040,437,–,0.0025,241,0.00268,C=CC(=O)Nc1cc(Nc2ncc(Cl)c(O[C@@H]3CO[C@H]4[C@@H]3OC[C@H]4O)n2)ccc1N1CCC(N(C)C)CC1 [LS 5-102],–,–,–,–,–,strong and selective JAK3 kinase inhibitory activity,–
39.9,551,69.2,463,4770,2080,–,0.0039,3120,0.00435,"C=CC(=O)Nc1cc(Nc2ncc(Cl)cn2)ccc1N1CCC(N2CCN(C)CC2)CC1 [LS 5-126, N-(5-((5-chloropyrimidin-2-yl)amino)-2-(4-(4-methylpiperazin-1-yl)piperidin-1-yl)phenyl) acrylamide]",–,–,–,–,–,–,–
216,128,12,75.3,481,362,–,0.00219,166,0.00217,C=CC(=O)Nc1cc(Nc2ncc(Cl)c(O[C@@H]3CO[C@H]4[C@@H]3OC[C@H]4O)n2)ccc1N1CCN(CC)CC1 [LS 5-143],–,–,–,–,–,strong and selective JAK3 kinase inhibitory activity,–
897,275,15.8,272,270,606,–,0.00198,186,0.00174,C=CC(=O)Nc1cc(Nc2ncc(Cl)c(O[C@@H]3CO[C@H]4[C@@H]3OC[C@H]4O)n2)ccc1N1CCC(N(C)C)C1 (stereo partly shown) [LS 5-150],–,–,–,–,–,strong and selective JAK3 kinase inhibitory activity,–
47.2,288,19.6,428,190,–,–,0.0015,148,0.00129,"C=CC(=O)Nc1cc(Nc2ncc(Cl)c(O[C@@H]3CO[C@H]4[C@@H]3OC[C@H]4O)n2)ccc1N1C[C@@H]2C[C@H]1CO2 [LS 5-152, N-(2-(((1S,4S)-2-oxa-5-azabicyclic[2.2.1]heptane-5-yl)-5-(5-chloro-4-(((3R,3aR,6R, 6aR)-6-hydroxyhexahydrofurano[3,2-b]furan-3-yl)oxygen)pyrimidin-2-yl)amino)phenyl) acrylamide]",–,–,–,–,–,–,–

Structure (SMILES),"IC50 ([1]; Homo sapiens, K562, 72 hours) [nM]","IC50 ([2]; Homo sapiens, Jurkat) [nM]","IC50 ([3]; Homo sapiens, U-937, 72 hours) [nM]","IC50 ([4]; Homo sapiens, HuT78, 72 hours) [nM]",IC50 (JAK1) [nM],IC50 (JAK2; ATP concentration Km) [nM],"IC50 (JAK3; ATP concentration 1 mM, in μM) [µM]",IC50 (JAK3; ATP concentration Km) [µM],IC50 (TYK2) [nM],IC50 (JAK3; ATP concentration 1 mM) [µM],IC50 ([1]; 72 hours) [nM],IC50 [2] [nM],IC50 ([3]; 72 hours) [nM],IC50 ([4]; 72 hours) [nM],IC50 (JAK2) [nM],JAK3 kinase inhibitory activity and selectivity (in words) (JAK3),IC50 (JAK3)
"C=CC(=O)Nc1cc(Nc2ncc(Cl)c(O[C@@H]3CO[C@H]4[C@@H]3OC[C@H]4O)n2)ccc1N1CCC(N2CCN(C)CC2)CC1 [LS 5-12, N-(5-((5-chloro-4-(((3R,3aR,6R, 6aR)-6-hydroxyhexahydrofurano[3,2-b]furan-3-yl)oxygen)pyrimidin-2-yl)amino)-2-(4-(4-methylpiperazin-1-yl)piperidin-1-yl)phenyl) acrylamide]",–,–,–,–,1540,–,–,–,369,–,290,434,35.9,31.7,1030,strong and selective JAK3 kinase inhibitory activity,–
C=CC(=O)Nc1cc(Nc2ncc(Cl)c(O[C@@H]3CO[C@H]4[C@@H]3OC[C@H]4O)n2)ccc1F [LS 5-62],–,–,–,–,1060,–,–,–,860,–,637,2460,111,423,11000,strong and selective JAK3 kinase inhibitory activity,0.0022 µM and 0.00226 µM
C=CC(=O)Nc1cccc(Nc2ncc(Cl)c(O[C@@H]3CO[C@H]4[C@@H]3OC[C@H]4O)n2)c1 [LS 5-77],–,–,–,–,556,–,–,–,93.9,–,103,1660,106,447,1400,strong and selective JAK3 kinase inhibitory activity,0.00125 µM and 0.00239 µM
